# Results reported in US6531612B2, “Nitrile derivatives that inhibit cathepsin K” (Hoffman-La Roche Inc., priority 1999, dated 2003).
# Experiments:
# Format in all cases: biochemical
# [1] = biological target: Human recombinant cathepsin S (Homo sapiens, UniProt P25774); assay: cathepsin S inhibitory activity (fluorogenic substrate Z-Val-Val-Arg-MCA); conditions: room temperature, enzyme 0.5 nM, substrate 20 μM, pH 6.5
# Description: (§1) The inhibitory activity of the compounds against cathepsin K, S, L and B was tested at room temperature in 96-wells opaque white polystyrene plates (Costar). The cathepsin K inhibitory activity was tested as follows:
# (§2) 5 μl of an inhibitor diluted in 5 mM sodium phosphate, NaCl 15 mM pH 7.4 containing 1% DMSO (final concentrations: 10−0.0001 μM) were preincubated for 10 min with 35 μl of human recombinant cathepsin K (final concentration: 1 nM) diluted in assay buffer (100 mM sodium acetate pH 5.5 containing 5 mM EDTA and 20 mM cysteine). After addition of 10 μl of the fluorogenic substrate Z-Leu-Arg-MCA diluted in assay buffer (final concentration: 5 μM), increase of fluorescence (excitation at 390 nm and emission at 460 nm) was measured for 7.5 min every 45 sec. The initial velocity (RFU/min) was derived from the linear fit of the 11 reading points.
# Cathepsin S inhibitory activity was assayed analogeously to the cathepsin K inhibitory activity, except that the buffer was 100 mM potassium phosphate, 5 mM EDTA, 5 mM DTT (freshly added), 0.01% Triton X-100, pH 6.5 and the fluorogenic substrate was Z-Val-Val-Arg-MCA (Bachem) (final concentration: 20 μM). Human recombinant cathepsin S (Wiederanders et al., Eur. J. Biochem. 1997, 250, 745-750) was used at a final concentration of 0.5 nM.
# (§3) The results are given as IC50 values which denote the concentration of the inhibitor at which the enzymatic activity is inhibited by 50%. The IC50 values are determined from a linear regression curve from a logit-log plot.
# human liver cathepsin B = biological target: T1, human liver cathepsin B (Homo sapiens, UniProt P07858); assay: cathepsin B inhibitory activity; conditions: room temperature, enzyme 1 nM, substrate 5 μM, pH 5.5
# T1 construct: using human liver cathepsin B (Calbiochem) at a final concentration of 1 nM; purchased Calbiochem; host or cells: human liver (tissue-derived)
# Description: as §1, §2
# The cathepsin B inhibitory activity was assayed under the same conditions as the cathepsin K inhibitory activity using human liver cathepsin B (Calbiochem) at a final concentration of 1 nM.
# as §3
# human liver cathepsin L = biological target: T2, human liver cathepsin L (Homo sapiens, UniProt P07711); assay: cathepsin L inhibitory activity; conditions: room temperature, enzyme 3 nM, substrate 5 μM, pH 5.5
# T2 construct: using human liver cathepsin L (Calbiochem) at a final concentration of 3 nM; purchased Calbiochem; host or cells: human liver (tissue-derived)
# Description: as §1, §2
# The cathepsin L inhibitory activity was assayed under the same conditions as the cathepsin K inhibitory activity using human liver cathepsin L (Calbiochem) at a final concentration of 3 nM.
# as §3
# [2] = biological target: T3, human recombinant cathepsin K (Homo sapiens, UniProt P43235); assay: cathepsin K inhibitory activity (fluorogenic substrate Z-Leu-Arg-MCA); conditions: room temperature, enzyme 1 nM, substrate 5 μM, pH 5.5
# T3 sequence (P43235 115-329): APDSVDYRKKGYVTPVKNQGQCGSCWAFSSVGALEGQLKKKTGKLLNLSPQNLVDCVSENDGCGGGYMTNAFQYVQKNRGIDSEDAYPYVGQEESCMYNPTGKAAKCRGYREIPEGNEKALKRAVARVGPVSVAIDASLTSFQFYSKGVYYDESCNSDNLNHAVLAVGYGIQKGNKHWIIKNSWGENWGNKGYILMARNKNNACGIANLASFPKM
# Description: as §1, §2, §3
# Sequence of Human recombinant cathepsin S (P25774 115-331): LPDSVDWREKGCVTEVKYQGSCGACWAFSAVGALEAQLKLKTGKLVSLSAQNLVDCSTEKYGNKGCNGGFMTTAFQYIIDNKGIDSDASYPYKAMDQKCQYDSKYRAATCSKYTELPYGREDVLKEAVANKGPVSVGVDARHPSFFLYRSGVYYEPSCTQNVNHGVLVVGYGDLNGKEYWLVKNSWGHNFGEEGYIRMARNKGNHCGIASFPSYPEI
# T2 sequence (P07711 114-333): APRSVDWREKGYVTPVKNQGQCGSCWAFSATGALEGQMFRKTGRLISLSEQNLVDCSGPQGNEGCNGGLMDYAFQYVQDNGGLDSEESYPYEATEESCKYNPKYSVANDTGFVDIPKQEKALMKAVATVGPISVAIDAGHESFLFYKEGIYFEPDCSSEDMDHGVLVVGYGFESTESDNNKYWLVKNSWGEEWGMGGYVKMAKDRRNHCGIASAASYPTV
SMILES,IC50 [1],IC50 (human liver cathepsin B),IC50 (human liver cathepsin L),IC50 [2]
"N#CC(NC(=O)[C@@H]1CCCN1C(=O)COCc1ccccc1)c1ccc2c(c1)OCO2 (mixture of isomers) [10.33, (S)-1-Benzyloxyacetyl-pyrrolidine-2-carboxylic acid ((R)- and (S)-benzo[1,3]dioxol-5-yl-cyano-methyl)-amide]",> 10000 nM,2000 nM,> 10000 nM,27 nM
"N#CC(NC(=O)[C@@H]1CCCN1C(=O)OCc1ccccc1)c1ccc2c(c1)OCO2 (mixture of isomers) [10.9, (S)-2-[(R)- and (S)-(Benzo[l,3]dioxol-5-yl-cyano-methyl)-carbamoyl]-pyrrolidine-1-carboxylic acid benzyl ester]",> 10000 nM,9500 nM,> 10000 nM,14 nM
"N#CC(NC(=O)[C@@H]1CCCN1C(=O)CCC1CCCC1)c1ccc2c(c1)OCO2 (mixture of isomers) [10.32, (S)-1-(3-Cyclopentyl-propionyl)-pyrrolidine-2-carboxylic acid ((R)- and (S)-benzo[l,3]dioxol-5-yl-cyano-methyl)-amide]",> 10000 nM,600 nM,> 10000 nM,37 nM
"COc1ccc(C(C#N)NC(=O)[C@@H]2[C@H](C)CCN2C(=O)OCc2ccccc2)cc1OC (mixture of isomers) [10.11, (2S,3R)-2-{(R)- and (S)-[Cyano-(3,4-dimethoxy-phenyl)-methyl]-carbamoyl}-3-methyl-pyrrolidine-1-carboxylic acid benzyl ester]",> 10000 nM,600 nM,> 10000 nM,68 nM
"COc1ccc(C(C#N)NC(=O)[C@@H]2CCCN2C(=S)NCc2ccco2)cc1OC (mixture of isomers) [10.14, (S)-1-[(Furan-2-ylmethyl)-thiocarbamoyl]-pyrrolidine-2-carboxylic acid [(R)- and (S)-cyano-(3,4-dimethoxy-phenyl)-methyl]-amide]",> 10000 nM,6200 nM,> 10000 nM,64 nM
"Cc1ccccc1C(C#N)NC(=O)[C@@H]1CCCN1C(=O)OCc1ccccc1 (mixture of isomers) [10.20, (S)-2-[(R)- and (S)-(Cyano-o-tolyl-methyl)-carbamoyl]-pyrrolidine-1-carboxylic acid benzyl ester]",> 10000 nM,> 10000 nM,> 10000 nM,26 nM
"N#C[C@H](NC(=O)[C@@H]1CCCN1C(=O)OCc1ccccc1)c1ccccc1 [10.2, (S)-2-[(R)-(Cyano-phenyl-methyl)-carbamoyl]-pyrrolidine-1-carboxylic acid benzyl ester]",> 10000 nM,2800 nM,> 10000 nM,46 nM
"COc1cc(C(C#N)NC(=O)[C@@H]2CCCN2C(=O)OCc2ccccc2)ccc1OCc1ccccc1 (mixture of isomers) [10.28, (S)-2-{(R)- and (S)-[(4-Benzyloxy-3-methoxy-phenyl)-cyano-methyl]-carbamoyl}-pyrrolidine-1-carboxylic acid benzyl ester]",> 10000 nM,> 10000 nM,> 10000 nM,45 nM
"N#CC(NC(=O)[C@@H]1CCCN1C(=O)OCc1ccccc1)c1cccc(Br)c1 (mixture of isomers) [10.22, (S)-2-{(R)- and (S)-[(3-Bromo-phenyl)-cyano-methyl]-carbamoyl}-pyrrolidine-1-carboxylic acid benzyl ester]",> 10000 nM,> 10000 nM,> 10000 nM,16 nM

# The next lines start with the values.
IC50 [1],IC50 (human liver cathepsin B),IC50 (human liver cathepsin L),IC50 [2],SMILES
> 10000 nM,2000 nM,7000 nM,15 nM,"N#CC(NC(=O)[C@@H]1CCCN1C(=O)Cc1cccc(Br)c1)c1ccc2c(c1)OCO2 (stereo partly drawn) [11.1, (S)-1-[2-(3-Bromo-phenyl)-ethanoyl]-pyrrolidine-2-carboxylic acid (1-benzo[1,3]dioxol-5-yl-1-cyano-methyl)-amide]"
> 10000 nM,600 nM,> 10000 nM,18 nM,"COc1ccc(C(C#N)NC(=O)[C@@H]2CCCN2C(=O)Cc2cccc(Br)c2)cc1OC (stereo partly drawn) [11.2, (S)-1-[2-(3-Bromo-phenyl)-ethanoyl]-pyrrolidine-2-carboxylic acid [1-cyano-1-(3,4-dimethoxy-phenyl)-methyl]-amide]"
> 10000 nM,4000 nM,> 10000 nM,26 nM,"N#CC(NC(=O)[C@@H]1CCCN1C(=O)Cc1ccc(Br)cc1)c1ccc2c(c1)OCO2 (stereo partly drawn) [11.10, (S)-1-[2-(4-Bromo-phenyl)-ethanoyl]-pyrrolidine-2-carboxylic acid (1-benzo[1,3]dioxol-5-yl-1-cyano-methyl)-amide]"
